In assay [1] the target is T1, triplatin (Triatoma infestans, UniProt Q18NS7).
Assay [2] has as its target T1, triplatin. The experiment in a line: biochemical.
A further assay relates to ApoD. Description: Isothermal titration calorimetry of ligand binding to ApoD. The settings on record: ITC, ApoD expressed in HEK293 cells.
The next assay has as its system platelets. Description: Platelet aggregation. Format: cell-based, human. The settings on record: for Effect on ADP-induced platelet aggregation: indometacin 50 μM.

These results are taken from publication PMC3408606 (Thrombosis and haemostasis, 2011).

Structures are written as SMILES. Where two headings read alike, the source gives them in different places.

T1 sequence (Q18NS7 19-182 limits assumed): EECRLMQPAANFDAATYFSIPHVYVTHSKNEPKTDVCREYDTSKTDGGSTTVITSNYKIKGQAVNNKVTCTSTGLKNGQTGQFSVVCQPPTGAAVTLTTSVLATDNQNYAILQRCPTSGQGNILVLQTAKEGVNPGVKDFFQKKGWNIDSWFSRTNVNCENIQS

Compound `CCCCC/C=C\C/C=C\C[C@H](O)/C=C/C=C\CCCC(=O)O` [9s-HETE] showed a dissociation constant Kd on triplatin [1] above 1000 nM.
Consider `CCCCC/C=C\C[C@H](O)/C=C/C=C\C/C=C\CCCC(=O)O` [12(S)-HETE], for which the Binding to triplatin entry on triplatin [1] (ITC, Figure 3 or not shown) is recorded as “not observed”.
Regarding `CCCCC[C@H](O)/C=C/C=C\C/C=C\C/C=C\CCCC(=O)O` [15s-HETE], the Kd at triplatin [2] is above 1000 nM.
As to `O=C(O)CCC/C=C\C/C=C\C/C=C\C/C=C\CCCCCO` [20-HETE], at triplatin [1] (ITC, Figure 3 or not shown), the Binding to triplatin result is listed as “not observed”.
For `Nc1ncnc2c1ncn2[C@@H]1O[C@H](COP(=O)(O)OP(=O)(O)O)[C@@H](O)[C@H]1O` [ADP, adenosine diphosphate], the Binding to triplatin result at triplatin [1] (ITC, Figure 3 or not shown) is on record as “not observed”.
For `CCCCC/C=C\C/C=C\C/C=C\C/C=C\CCCC(=O)O` [Arachidonic acid, arachidonic acid], the “Binding to ApoD” value in the assay on ApoD was “failed to detect binding”. Further, the Binding to triplatin result on triplatin [1] (ITC, Figure 3 or not shown) was “not observed”.
Take `NCCc1c[nH]cn1` [Histamine, histamine]: on triplatin [1] (ITC, Figure 3 or not shown), the Binding to triplatin entry is listed as “not observed”.
For the compound `CCCCC/C=C\C\C=C/C=C/C=C/[C@@H](SC[C@H](NC(=O)CC[C@H](N)C(=O)O)C(=O)NCC(=O)O)[C@@H](O)CCCC(=O)O` [LTC4], the Binding to triplatin result on triplatin [1] was “not observed”.
`CCCCC[C@H](O)/C=C/[C@H]1[C@H](O)CC(=O)[C@@H]1CCCCCCC(=O)O` [PGE1]: the Binding to triplatin entry on triplatin [1] is given as “not observed”.
Regarding `CCCCC[C@H](O)/C=C/[C@@H]1[C@@H](C/C=C\CCCC(=O)O)[C@@H](O)C[C@H]1O` [PGF2α], the “Binding to ApoD” value in the assay on ApoD is given as “failed to detect binding”. Besides, the ΔG at triplatin [1] (calculated free energy, ITC 30°C, n.d. = no binding detected) is -9.25 kcal/mol. The compound also gave a dissociation constant (Kd) at triplatin [2] of 215 ± 10 nM.
Turning to `CCCCC[C@H](O)/C=C/[C@H]1C(=O)C=C[C@@H]1C/C=C\CCCC(=O)O` [PGJ2], at triplatin [1], the Kd amounted to 111 ± 3.4 nM, the TΔS was -1.49 kcal/mol, the ΔG was -9.65 kcal/mol and the ΔH was -11.14 ± 0.38 kcal/mol.
As for `O=C(O)CCC/C=C\C[C@@H]1[C@H](CNNC(=O)Nc2ccccc2)[C@H]2CC[C@@H]1O2` [SQ29548], in the assay with platelets, the “Inhibition of collagen-induced platelet aggregation” value is reported as “partial inhibition”.
As to `CCCCC[C@H](O)/C=C/[C@H]1OC(O)C[C@H](O)[C@@H]1C/C=C\CCCC(=O)O` (stereo partly shown) [TXB2], on triplatin [1], the Kd is 355 ± 6.7 nM, the TΔS was -2.58 kcal/mol, the ΔG was -8.95 kcal/mol and the ΔH was -11.53 ± 0.92 kcal/mol.
For `CCCCC[C@H](O)/C=C/[C@@H]1[C@@H](C/C=C\CCCC(=O)O)[C@H]2CO[C@@H]1C2` [U46619] the same measures were 294 ± 51 nM, -2.46 kcal/mol, -9.06 kcal/mol and -11.52 ± 0.38 kcal/mol.
With `CCCCC[C@H](O)/C=C/[C@H]1CC2CC(C2)[C@@H]1C/C=C\CCCC(=O)O` [cTXA2], the “Binding to ApoD” value with ApoD is “failed to detect binding”. On triplatin [1], this compound gave a Kd of 369 ± 103 nM, a TΔS of -3.90 kcal/mol, a ΔG of -8.93 kcal/mol and a ΔH of -12.83 ± 0.73 kcal/mol.
In the case of `COc1ccc2c(c1)c(CC(=O)O)c(C)n2C(=O)c1ccc(Cl)cc1` [indometacin], the “Effect on ADP-induced platelet aggregation” value is reported as “not affected” in the assay with platelets (ADP 1 μM (low dose)) and “attenuated” in the assay with platelets (ADP 10 μM). The “Inhibition of collagen-induced platelet aggregation” value in the assay on platelets (collagen 6.6 μg/ml, inhibitor alone: indometacin 50 μM, SQ29548 0.2 μM, triplatin 1 μM) is reported as “partial inhibition”.

One may read the Kd as the free concentration of one partner at which half of the binding sites on the other are occupied at equilibrium, for simple one-to-one binding. High values mean a looser complex, low ones a tighter complex.
